Reference: patent US20130096163A1, “Injectable dosage form of flupirtine” (AWD.PHARMA GMBH & CO. KG, priority 2010, published 2013)
Like-named read-outs stand apart in the source and are kept apart here.

Assay: Solubility of flupirtine salts in water (stirring a suspension, filtration, HPLC-UV)
Assay type: physicochemical
Method: The solubility of the salt used is determined by stirring a suspension of a defined quantity of the corresponding salt for 30 minutes in a closed container in fully desalinated water at 25° C. The undissolved portion of the salt is filtered off, the filtrate is diluted to a suitable concentration range, and the flupirtine concentration of the solution determined using HPLC-UV (high performance liquid chromatography with UV-detection).
In a preferred embodiment of the invention, the flupirtine salt contained in the lyophilisate is selected from flupirtine mesilate, flupirtine besilate and/or flupirtine phosphate. Table 1shows the respective solubility of each of these flupirtine salts in water at 25° C. The solubility has been determined as described above.

Solubility | Compound | Solubility (in fully desalinated water at 25° C., suspension stirred 30 minutes, filtrate by HPLC-UV)
 | CCOC(=O)Nc1ccc(NCc2ccc(F)cc2)nc1N.O=S(=O)(O)c1ccccc1 [Flupirtine besilate] | 2.8 mg/mL
16.8 mg/mL | Flupirtine mesilate | 
13.6 mg/mL | Flupirtine phosphate | 
